The record followed here is patent publication US6824990B1, “Methods of detecting and modulating oligomerization of G protein-coupled receptors” (priority 1999, dated 2004).

The target of test [1] is T1, Ste2Δtail-CFP and Ste2Δtail-YFP (Saccharomyces cerevisiae, UniProt D6VTK4).
T1 construct: CFP and YFP were joined 8 amino acids (position 304) beyond transmembrane domain VII of the α-factor receptor; expressed in transfected cells; host or cells: S. cerevisiae KBY58 (ste2Δ), single copy plasmids, STE2 promoter
T1 sequence (D6VTK4 1-304, stated change not applied): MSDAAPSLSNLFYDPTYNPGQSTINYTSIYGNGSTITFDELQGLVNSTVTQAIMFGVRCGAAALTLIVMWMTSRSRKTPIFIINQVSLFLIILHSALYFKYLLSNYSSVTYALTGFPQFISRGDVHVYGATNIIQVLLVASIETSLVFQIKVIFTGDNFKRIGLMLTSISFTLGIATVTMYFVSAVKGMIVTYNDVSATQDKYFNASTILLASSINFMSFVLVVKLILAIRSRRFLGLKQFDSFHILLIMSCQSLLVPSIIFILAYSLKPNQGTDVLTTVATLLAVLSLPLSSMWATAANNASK
Description: FRET in purified plasma membrane fractions. It is filed as biochemical, S. cerevisiae. As to the method: Yeast cells expressed tailless α-factor receptors fused to CFP or YFP (Ste2-CFP or -YFP) and/or glucose transporters fused to YFP (Hxt1-YFP), as indicated. Untagged α-factor receptors (Ste2) or glucose transporters (Hxt1) were overexpressed where indicated. Intact cells (panels a-g) or plasma membrane fractions (panels h-i) were excited at the λmax of CFP (440 nm) and fluorescence emission was detected by scanning fluorometry. Fluorescence emission due to FRET (FRET) was determined as: (emission spectrum of cells co-expressing CFP and YFP fusion proteins)—(emission spectrum of cells expressing CFP fusion alone)—(emission spectrum of cells expressing YFP fusion alone). The efficiency of FRET (panel e) was determined as: (integrated FRET curve)/(integrated emission curve obtained upon direct excitation of YFP at 490 nm). In panels f, g and i, only the FRET emission curves are shown for experiments performed under the indicated conditions. […]
CFP and YFP were joined 8 amino acids (position 304) beyond transmembrane domain VII of the α-factor receptor (STE2 gene product) and at the immediate C-terminus of a glucose transporter (HXT1 gene product). These fusion proteins were expressed from the STE2 promoter on single copy plasmids with different selectable markers, allowing them to be co-expressed at similar levels as shown by quantitation of CFP and YFP fluorescence. […]

Test [2] relates to Ste2Δtail-CFP and Ste2Δtail-YFP. In words: FRET between CFP- and YFP-tagged tailless α-factor receptors in intact yeast cells. The test is classed as cell-based, S. cerevisiae. As to conditions: cells treated with latrunculin B. As to the method:
(§1) Yeast cells expressed tailless α-factor receptors fused to CFP or YFP (Ste2-CFP or -YFP) and/or glucose transporters fused to YFP (Hxt1-YFP), as indicated. Untagged α-factor receptors (Ste2) or glucose transporters (Hxt1) were overexpressed where indicated. Intact cells (panels a-g) or plasma membrane fractions (panels h-i) were excited at the λmax of CFP (440 nm) and fluorescence emission was detected by scanning fluorometry. Fluorescence emission due to FRET (FRET) was determined as: (emission spectrum of cells co-expressing CFP and YFP fusion proteins)—(emission spectrum of cells expressing CFP fusion alone)—(emission spectrum of cells expressing YFP fusion alone). The efficiency of FRET (panel e) was determined as: (integrated FRET curve)/(integrated emission curve obtained upon direct excitation of YFP at 490 nm). In panels f, g and i, only the FRET emission curves are shown for experiments performed under the indicated conditions. The results shown in each panel are representative of at least 6 independent experiments, with equivalent results.
(§2) CFP and YFP were joined 8 amino acids (position 304) beyond transmembrane domain VII of the α-factor receptor (STE2 gene product) and at the immediate C-terminus of a glucose transporter (HXT1 gene product). These fusion proteins were expressed from the STE2 promoter on single copy plasmids with different selectable markers, allowing them to be co-expressed at similar levels as shown by quantitation of CFP and YFP fluorescence. Ste2Δtail-CFP and -YFP fusions had normal agonist binding affinities (1-2 nM) and cell surface expression (6-8,000 receptors/cell), as determined by radioligand binding assays. […] Yeast cells (KBY58, a ste2Δ mutant) expressing CFP and/or YFP fusion proteins were grown at 30° C. in selective media to a density of 10^7 cells/ml, washed, suspended in 50 mM PIPES, pH 6.0 and analyzed by scanning fluorometry. […] Cells (10^7 cells in 3 ml) or membranes (20 μg protein in 3 ml) were irradiated at 440 nm to excite CFP and fluorescence emission was recorded from 460-610 nm. […]

For test [3], the target named is T1, Ste2Δtail-CFP and Ste2Δtail-YFP. The description is as above. It is filed as cell-based, S. cerevisiae. As to the method:
as §1, §2

As for `Nc1nc2c(ncn2[C@@H]2O[C@H](COP(=O)(O)OP(=O)(O)OP(O)(O)=S)[C@@H](O)[C@H]2O)c(=O)[nH]1` [GTP-γS], the “apparent efficiency of FRET” value in test [1] (5 μM agonist and 50 μM GTP-γS (activated and uncoupled), indistinguishable from inactive, n=11) is recorded as 20%±2%. For the same molecule, in test [1] (given membrane preparation, GTP-γS 50 μM), the “effect on efficiency of FRET” value is recorded as “no effect”. On to `C/C1=C/C(=O)O[C@@H]2C[C@@H](CC[C@H](C)/C=C\CC1)O[C@@](O)([C@@H]1CSC(=O)N1)C2` [latrunculin B], for which, in test [2], the “FRET when the actin cytoskeleton was disassembled” value is recorded as “FRET was detected”. desTrp1,Ala3,Nle12-α-factor: the “effect on efficiency of FRET” value in test [3] (given transformant, 1 nM-5 μM, 1-20 min after addition) was “no effect”. The “apparent efficiency of FRET” value in test [3] (treated cells, sub-saturating to saturating ligand concentrations, indistinguishable from control cells, n=6) is 18%±1.
